Source: ChEMBL document CHEMBL3297656, “New coumarin derivatives: design, synthesis and use as inhibitors of hMAO” (Bioorg Med Chem, 2014)

Experiments:
[1] = target: T1, Amine oxidase [flavin-containing] A (Homo sapiens, UniProt P21397); assay: Inhibition of human recombinant MAO-A assessed as H2O2 production using p-tyramine substrate by fluorimetric method
T1 sequence (P21397 whole entry): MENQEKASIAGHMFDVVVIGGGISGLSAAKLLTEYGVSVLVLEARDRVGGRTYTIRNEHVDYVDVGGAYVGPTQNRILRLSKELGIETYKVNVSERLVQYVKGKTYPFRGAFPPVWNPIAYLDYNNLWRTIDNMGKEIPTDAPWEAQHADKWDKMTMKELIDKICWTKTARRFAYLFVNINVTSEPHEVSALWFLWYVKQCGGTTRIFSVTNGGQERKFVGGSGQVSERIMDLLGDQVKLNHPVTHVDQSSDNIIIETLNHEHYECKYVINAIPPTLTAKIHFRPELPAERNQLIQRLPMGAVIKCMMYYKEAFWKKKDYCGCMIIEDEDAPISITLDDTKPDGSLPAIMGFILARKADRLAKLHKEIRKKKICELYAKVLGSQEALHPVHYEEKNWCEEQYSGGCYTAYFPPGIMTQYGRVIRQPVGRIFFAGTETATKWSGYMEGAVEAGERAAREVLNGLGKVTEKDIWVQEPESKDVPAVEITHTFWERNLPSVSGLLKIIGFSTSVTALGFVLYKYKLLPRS

[2] = target: T2, Amine oxidase [flavin-containing] B (Homo sapiens, UniProt P27338); assay: Inhibition of human recombinant MAO-B assessed as H2O2 production using p-tyramine substrate by fluorimetric method
T2 sequence (P27338 whole entry): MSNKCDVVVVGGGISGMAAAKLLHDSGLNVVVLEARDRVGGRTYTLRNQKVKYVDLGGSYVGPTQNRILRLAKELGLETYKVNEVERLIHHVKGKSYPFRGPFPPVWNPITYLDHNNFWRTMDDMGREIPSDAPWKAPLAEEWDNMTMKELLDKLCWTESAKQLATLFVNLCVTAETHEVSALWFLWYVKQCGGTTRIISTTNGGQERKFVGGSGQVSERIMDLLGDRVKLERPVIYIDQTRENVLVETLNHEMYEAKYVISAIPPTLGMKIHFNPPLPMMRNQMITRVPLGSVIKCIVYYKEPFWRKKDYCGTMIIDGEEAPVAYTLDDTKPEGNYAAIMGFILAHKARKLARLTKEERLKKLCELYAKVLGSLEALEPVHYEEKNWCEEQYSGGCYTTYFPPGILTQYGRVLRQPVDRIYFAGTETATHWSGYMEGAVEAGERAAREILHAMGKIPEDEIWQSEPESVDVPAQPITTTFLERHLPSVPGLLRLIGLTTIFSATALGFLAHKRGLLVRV

[3] = species on record: Homo sapiens; assay: Selectivity index, ratio of IC50 for human recombinant MAO-A to IC50 for human recombinant MAO-B
[4] = target: T1, Amine oxidase [flavin-containing] A; assay: Inhibition of human recombinant MAO-A assessed as H2O2 production using p-tyramine substrate at 60 uM by fluorimetric method
[5] = target: T2, Amine oxidase [flavin-containing] B; assay: Inhibition of human recombinant MAO-B assessed as H2O2 production using p-tyramine substrate at 60 uM by fluorimetric method

Row | Compound | IC50 [1] [µM] | IC50 [2] [µM] | Ratio IC50 [3] | inhibition (INH) [4] | inhibition (INH) [5]
1 | CCC(C)NC(=O)c1cc2cc(Br)cc(Br)c2oc1=O (stereo not drawn) | 42.3 | 45.4 | 0.9 |  | 
2 | O=C(Sc1ccc(Br)cc1)c1cc2cc(Br)c(Br)cc2oc1=O |  | 25.2 | 2.4 | Not Active | 
3 | CCCCSC(=O)c1cc2cc(Br)c(Br)cc2oc1=O |  |  |  | Not Active | Not Active
4 | CCCCCCN(CCCCCC)C(=O)c1cc2cc([N+](=O)[O-])ccc2oc1=O |  |  |  | Not Active | Not Active
5 | CC(C)(C)NC(=O)c1cc2cc([N+](=O)[O-])ccc2oc1=O |  |  |  | Not Active | Not Active
6 | CC(C)NC(=O)c1cc2cc([N+](=O)[O-])ccc2oc1=O |  |  |  | Not Active | Not Active
7 | CCCCSC(=O)c1cc2cc([N+](=O)[O-])ccc2oc1=O |  |  |  | Not Active | Not Active
8 | CC(C)NC(=O)c1cc2ccccc2oc1=O | 35.5 |  |  |  | 

Second part, the compound after the results:

Row | IC50 [1] [µM] | IC50 [2] [µM] | Ratio IC50 [3] | inhibition (INH) [4] | inhibition (INH) [5] | Compound
9 | 48.3 | 13.1 | 2.9 |  |  | O=C(SCc1ccco1)c1cc2cc([N+](=O)[O-])ccc2oc1=O
10 |  | 20.7 | 2.6 | Not Active |  | O=C(Sc1ccc(Br)cc1)c1cc2cc([N+](=O)[O-])ccc2oc1=O
11 | 22.7 | 6.5 | 3.5 |  |  | O=C(Sc1ccc(Br)cc1)c1cc2ccccc2oc1=O
12 |  | 7.68 | 7.8 | Not Active |  | O=C(Sc1ncccn1)c1cc2ccccc2oc1=O
13 | 40.4 | 7.9 | 5.1 |  |  | CC(C)(C)NC(=O)c1cc2ccccc2oc1=O
14 |  | 15.2 | 3.9 | Not Active |  | O=C(Sc1ccc(Br)cc1)c1cc2cc(C(F)(F)F)ccc2oc1=O
15 | 22.7 | 10.3 | 2.2 |  |  | CC(C)NC(=O)c1cc2cc(Br)cc(Br)c2oc1=O
16 | 10.1 | 7.41 | 1.4 |  |  | CCCCCCN(CCCCCC)C(=O)c1cc2cc(Br)cc(Br)c2oc1=O
17 |  | 5.68 | 10.6 | Not Active |  | O=C(SCc1ccco1)c1cc2cc(Br)c(Br)cc2oc1=O
18 | 39.7 | 0.21 | 189 |  |  | O=C(SCc1ccco1)c1cc2ccccc2oc1=O
19 |  | 16 | 3.8 | Not Active |  | CCCCSC(=O)c1cc2ccccc2oc1=O
20 |  | 17.4 | 3.4 | Not Active |  | CCC(C)NC(=O)c1cc2cc([N+](=O)[O-])ccc2oc1=O (stereo not drawn)
